Measurements as given in patent US11542225B2, “Lipids for use in lipid nanoparticle formulations” (ACUITAS THERAPEUTICS, INC., priority 2017, dated 2023).
Where two headings read alike, the source gives them in different places.

Columns and labels:
[1] = Determination of pKa of formulated lipids (TNS fluorescence assay in lipid nanoparticles); assay type: physicochemical
Description: As described elsewhere, the pKa of formulated lipids was correlated with the effectiveness of LNPs for delivery of nucleic acids (see Jayaraman et al, Angewandte Chemie, International Edition (2012), 51(34), 8529-8533; Semple et al, Nature Biotechnology 28, 172-176 (2010)). In some embodiments, the preferred range of pKa was ˜5 to ˜7. […] Lipid nanoparticles comprising compound of structure (I)/DSPC/cholesterol/PEG-lipid (50/10/38.5/1.5 or 47.5:10:40.8:1.7 mol %) in PBS at a concentration of 0.4 mM total lipid were prepared using the in-line process as described in Example 1. TNS was prepared as a 100 μM stock solution in distilled water. Vesicles were diluted to 24 μM lipid in 2 mL of buffered solutions containing 10 mM HEPES, 10 mM MES, 10 mM ammonium acetate, and 130 mM NaCl, where the pH ranged from 2.5 to 11. An aliquot of the TNS solution was added to give a final concentration of 1 μM and following vortex mixing fluorescence intensity was measured at room temperature in a SLM Aminco Series 2 Luminescence Spectrophotometer using excitation and emission wavelengths of 321 nm and 445 nm. A sigmoidal best fit analysis was applied to the fluorescence data and the pKa was measured as the pH giving rise to half-maximal fluorescence intensity.

[2] = system: luciferase expression in the liver; assay: Luciferase mRNA in vivo evaluation using lipid nanoparticle compositions; parameters: species or system mice; details: novel lipids; values marked * in the 1.0 mg/kg column: dosed at 0.5 mg/kg; tail vein injection, 4 hours after administration
[3] = system: luciferase expression in the liver; assay: as above; parameters: species or system mice; details: for Liver Luc @ 0.3 mg/kg (ng luc/g liver) / Liver Luc @ 1.0 mg/kg (ng luc/g liver): novel lipids, tail vein injection, 4 hours after administration; for Liver Luc @ 0.3 mg/kg (ng luc/g liver): 0.3 mg mRNA/kg; for Liver Luc @ 1.0 mg/kg (ng luc/g liver): 1.0 mg mRNA/kg
Protocol: A lipid of structure (I), DSPC, cholesterol and PEG-lipid were solubilized in ethanol at a molar ratio of 50:10:38.5:1.5 or 47.5:10:40.8:1.7. Lipid nanoparticles (LNP) were prepared at a total lipid to mRNA weight ratio of approximately 10:1 to 30:1. Briefly, the mRNA was diluted to 0.2 mg/mL in 10 to 50 mM citrate buffer, pH 4. Syringe pumps were used to mix the ethanolic lipid solution with the mRNA aqueous solution at a ratio of about 1:5 to 1:3 (vol/vol) with total flow rates above 15 mL/min. The ethanol was then removed and the external buffer replaced with PBS by dialysis. Finally, the lipid nanoparticles were filtered through a 0.2 μm pore sterile filter.
Studies were performed in 6-8 week old female C57BL/6 mice (Charles River) 8-10 week old CD-1 (Harlan) mice (Charles River) according to guidelines established by an institutional animal cwere committee (ACC) and the Canadian Council on Animal Cwere (CCAC). Varying doses of mRNA-lipid nanoparticle were systemically administered by tail vein injection and animals euthanized at a specific time point (e.g., 4 hours) post-administration. Liver and spleen were collected in pre-weighed tubes, weights determined, immediately snap frozen in liquid nitrogen and stored at −80° C. until processing for analysis.
For liver, approximately 50 mg was dissected for analyses in a 2 mL FastPrep tubes (MP Biomedicals, Solon Ohio). ¼″ ceramic sphere (MP Biomedicals) was added to each tube and 500 μL of Glo Lysis Buffer—GLB (Promega, Madison Wis.) equilibrated to room temperature was added to liver tissue. Liver tissues were homogenized with the FastPrep24 instrument (MP Biomedicals) at 2×6.0 m/s for 15 seconds. Homogenate was incubated at room temperature for 5 minutes prior to a 1:4 dilution in GLB and assessed using SteadyGlo Luciferase assay system (Promega). Specifically, 50 μL of diluted twassue homogenate was reacted with 50 μL of SteadyGlo substrate, shaken for 10 seconds followed by 5 minute incubation and then quantitated using a CentroXS^3 LB 960 luminometer (Berthold Technologies, Germany). The amount of protein assayed was determined by using the BCA protein assay kit (Pierce, Rockford, Ill.). Relative luminescence units (RLU) were then normalized to total μg protein assayed. To convert RLU to ng luciferase a standard curve was generated with QuantiLum Recombinant Luciferase (Promega).
The FLuc mRNA (L-6107) from Trilink Biotechnologies will express a luciferase protein, originally isolated from the firefly, Photinus pyralwas. FLuc was commonly used in mammalian cell culture to measure both gene expression and cell viability. It emits bioluminescence in the presence of the substrate, luciferin. This capped and polyadenylated mRNA was fully substituted with 5-methylcytidine and pseudouridine.
Compounds of structure (I) were formulated using the following molar ratio: 47.5% cationic lipid/10% dwastearoylphosphatidylcholine (DSPC)/40.8% Cholesterol/1.7% PEG lipid (“PEG-DMA” 2-[2-(ω-methoxy(polyethyleneglycol2000)ethoxy]-N,N-ditetradecylacetamide). Relative activity was determined by measuring luciferase expression in the liver 4 hours following administration via tail vein injection as described in Example 1. The activity was compared at a dose of 0.3 and 1.0 mg mRNA/kg and expressed as ng luciferase/g liver measured 4 hours after administration, as described in Example 1.
The cationic lipids shown in Table 2 have previously been tested with nucleic acids. For comparative purposes, these lipids were also used to formulate lipid nanoparticles containing the FLuc mRNA (L-6107) using an in line mixing method, as described in Example 1 and in PCT/US10/22614, which is hereby incorporated by reference in its entirety. […]

[4] = Table 3, lipid formulated in LNP, TNS assay

Compound	pKa [1, 4]	Liver Luc (ng luc/g liver), dosed at 0.5 mg/kg [2]	pKa [1]	Relative activity in the luciferase assay relative to MC3 ([3]; luciferase expression in liver 4 hours after tail vein injection, 47.5/10/40.8/1.7 formulation with PEG-DMA)	Liver Luc @ 0.3 mg/kg (ng luc/g liver) [3]	Liver Luc @ 1.0 mg/kg (ng luc/g liver) [3]
CCCCCCCCC(CCCCCC)COC(=O)CCCCCCCN(CCCCCCCC(=O)OCC(CCCCCC)CCCCCCCC)CCCCOCC(O)C(O)COCCCCN(CCCCCCCC(=O)OCC(CCCCCC)CCCCCCCC)CCCCCCCC(=O)OCC(CCCCCC)CCCCCCCC (stereo not shown) [Compound 1]	6.18	174 ± 43* ng luc/g liver				
CCCCCCCCC(CCCCCC)COC(=O)CCCCCN(CCCCCC(=O)OCC(CCCCCC)CCCCCCCC)CCCOCC(O)C(O)COCCCN(CCCCCC(=O)OCC(CCCCCC)CCCCCCCC)CCCCCC(=O)OCC(CCCCCC)CCCCCCCC (stereo not shown) [Compound 2]			6.14	4.4	1225 ± 159 ng luc/g liver	4876 ± 1273 ng luc/g liver
CCCCCCCCC(CCCCCC)COC(=O)CCCCCN(CCCCCC(=O)OCC(CCCCCC)CCCCCCCC)CCCOCCOCCOCCCN(CCCCCC(=O)OCC(CCCCCC)CCCCCCCC)CCCCCC(=O)OCC(CCCCCC)CCCCCCCC (stereo not shown) [Compound 3]	5.3				33 ± 9 ng luc/g liver	99 ± 41 ng luc/g liver
CCCCCCCCC(CCCCCC)COC(=O)CCCCCC(CCCCCC(=O)OCC(CCCCCC)CCCCCCCC)NCCCOCCOCCOCCCNC(CCCCCC(=O)OCC(CCCCCC)CCCCCCCC)CCCCCC(=O)OCC(CCCCCC)CCCCCCCC (stereo not shown) [Compound 4]			7.2			
CCCCCCCCC(CCCCCC)C(=O)OCCCCCCCCCC(CCCCCCCCCOC(=O)C(CCCCCC)CCCCCCCC)OC(=O)CCCCNCCCCN(C)CCCCC(=O)OC(CCCCCCCCCOC(=O)C(CCCCCC)CCCCCCCC)CCCCCCCCCOC(=O)C(CCCCCC)CCCCCCCC (stereo not shown) [Compound 5]			4.24			
CCCCCCCCC(CCCCCC)COC(=O)CCCCCN(CCCCCC(=O)OCC(CCCCCC)CCCCCCCC)CCCN(C)CCCN(CCCCCC(=O)OCC(CCCCCC)CCCCCCCC)CCCCCC(=O)OCC(CCCCCC)CCCCCCCC (stereo not shown) [Compound 6]	5.81				92 ± 13 ng luc/g liver	169 ± 46 ng luc/g liver
CCCCCCC(CCCC)COC(=O)CCCCCN(CCCCCC(=O)OCC(CCCC)CCCCCC)CCCN(C)CCCN(CCCCCC(=O)OCC(CCCC)CCCCCC)CCCCCC(=O)OCC(CCCC)CCCCCC (stereo not shown) [Compound 7]	5.91				590 ± 98 ng luc/g liver	2473 ± 443 ng luc/g liver
CCCCCCCCC(CCCCCC)COC(=O)CCCCCC(CCCCCC(=O)OCC(CCCCCC)CCCCCCCC)NCCCOCCOCCOCCCN(CCCCCC(=O)OCC(CCCCCC)CCCCCCCC)CCCCCC(=O)OCC(CCCCCC)CCCCCCCC (stereo not shown) [Compound 8]	6.53	479 ± 163* ng luc/g liver				
